Assay results from BindingDB's records for doi:10.1016/s0960-894x(98)00709-4 (Dupont Pharmaceuticals, 1999).

Tests used:
[1] = Inhibition of platelet aggregation in heparin treated human platelet rich plasma (PRP)
[2] = Inhibition of platelet aggregation in citreated human platelet rich plasma (PRP)

Compound | IC50 [1] [nM] | IC50 [2] [nM]
N=C(N)c1ccc(C2=NOC(CC(=O)NCCC(=O)O)C2)cc1 (centres undefined) | 560 | 
[H]/N=C(/N)c1ccc(C2=NO[C@@H](CC(=O)NC[C@H](NC(=O)OCCCC)C(=O)O)C2)cc1 | 66 | 
CCCCOP(=O)(NC(CNC(=O)CC1CC(c2ccc(C(=N)N)cc2)=NO1)C(=O)O)OCCCC (centres undefined) [3-{2-[3-(4-Carbamimidoyl-phenyl)-4,5-dihydro-isoxazol-5-yl]-acetylamino}-2-(dibutoxy-phosphorylamino)-propionic acid] | 221 | 114
COP(=O)(NC(CNC(=O)CC1CC(c2ccc(C(=N)N)cc2)=NO1)C(=O)O)OC (centres undefined) [3-{2-[3-(4-Carbamimidoyl-phenyl)-4,5-dihydro-isoxazol-5-yl]-acetylamino}-2-(dimethoxy-phosphorylamino)-propionic acid] | 197 | 105

Now from value to compound:

IC50 [1] [nM] | IC50 [2] [nM] | Compound
224 | 122 | C=CCOP(=O)(NC(CNC(=O)CC1CC(c2ccc(C(=N)N)cc2)=NO1)C(=O)O)OCC=C (centres undefined) [2-(Bis-allyloxy-phosphorylamino)-3-{2-[3-(4-carbamimidoyl-phenyl)-4,5-dihydro-isoxazol-5-yl]-acetylamino}-propionic acid]
240 | 117 | CCOP(=O)(NC(CNC(=O)CC1CC(c2ccc(C(=N)N)cc2)=NO1)C(=O)O)OCC (centres undefined) [3-{2-[3-(4-Carbamimidoyl-phenyl)-4,5-dihydro-isoxazol-5-yl]-acetylamino}-2-(diethoxy-phosphorylamino)-propionic acid]
210 | 103 | CC(C)OP(=O)(NC(CNC(=O)CC1CC(c2ccc(C(=N)N)cc2)=NO1)C(=O)O)OC(C)C (centres undefined) [3-{2-[3-(4-Carbamimidoyl-phenyl)-4,5-dihydro-isoxazol-5-yl]-acetylamino}-2-(diisopropoxy-phosphorylamino)-propionic acid]
376 | 260 | N=C(N)c1ccc(C2=NOC(CC(=O)NCC(NP(=O)(O)O)C(=O)O)C2)cc1 (centres undefined) [3-{2-[3-(4-Carbamimidoyl-phenyl)-4,5-dihydro-isoxazol-5-yl]-acetylamino}-2-phosphonoamino-propionic acid]
